experiment: recombinant barcode read abundance after kanamycin selection (control-corrected) (log10(CPM+1)); higher = more efficient recombination; sequences stand for … in AGTGCAGAGAAAATCGGCCAGTTTTCTCTGCCTGCAGTCCGCATGCCGT…ATTTATGCAGCGGACTGCCTTTCTCCCAAAGTGATAAACCGGACAGTATCATGGACCGGTTTTCCCGGTAATCCGTATTTGCAAGGTTGGTTTCACT; site = the 11-nt target
Outline: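 A vector carrying a T7-inducible recombinase and the last 73 bp of the bridge RNA received, by Gibson cloning, oligos encoding a promoter, target, barcode and the first 104 bridge RNA bases under J23119. The pooled constructs entered E. coli together with a donor plasmid by electroporation. Selection used chloramphenicol/ampicillin/kanamycin with 0.1 mM IPTG, with chloramphenicol/ampicillin LB agar as the control, each in two replicates. Recombination efficiency is the averaged, control-corrected counts-per-million of barcodes at recombinant junctions, reported as log10(CPM+1).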

Sequence	recombinant barcode read abundance (log10)
GAGTCCACTTGGGTTCTAACCTGTTGCGTAT [GAGTCCACTAC_LTGcore_CT_RTGcore_AT] (site GAGTCCACTAC) (LTG core: CT, RTG core: AT)	0.389
AAACATGGATGGGTTCTAACCTGTTGCCTTC [AAACATGCTAG_LTGcore_GA_RTGcore_GA] (site AAACATGCTAG) (LTG core: GA, RTG core: GA)	0.0557
AGGCCTCTGTGGGTTCTAACCTGTTGCCTAG [AGGCCTCCTAG_LTGcore_TG_RTGcore_CT] (site AGGCCTCCTAG) (LTG core: TG, RTG core: CT)	0.11
AAACACAACTGGGTTCTAACCTGTTGCCTGT [AAACACACTAG_LTGcore_AC_RTGcore_AC] (site AAACACACTAG) (LTG core: AC, RTG core: AC)	0.0446
GAGTCCTGCTGGGTTCTAACCTGTTGCCTAG [GAGTCCTCTAG_LTGcore_GC_RTGcore_CT] (site GAGTCCTCTAG) (LTG core: GC, RTG core: CT)	0.0703
GAGTCCAAATGGGTTCTAACCTGTTGCGTTT [GAGTCCACTAC_LTGcore_AA_RTGcore_AA] (site GAGTCCACTAC) (LTG core: AA, RTG core: AA)	0.0227
TGTATTCCTTGGGTTCTAACCTGTTGCCTCA [TGTATTCCTAG_LTGcore_CT_RTGcore_TG] (site TGTATTCCTAG) (LTG core: CT, RTG core: TG)	0.1
ATGCTTTATTGGGTTCTAACCTGTTGCCTAT [ATGCTTTCTAG_LTGcore_AT_RTGcore_AT] (site ATGCTTTCTAG) (LTG core: AT, RTG core: AT)	0.153
GTCGCCCGTTGGGTTCTAACCTGTTGCTAAC [GTCGCCCCTTA_LTGcore_GT_RTGcore_GT] (site GTCGCCCCTTA) (LTG core: GT, RTG core: GT)	0.146
GGGCGTGGCTGGGTTCTAACCTGTTGCCTGC [GGGCGTGCTAG_LTGcore_GC_RTGcore_GC] (site GGGCGTGCTAG) (LTG core: GC, RTG core: GC)	0
AAACACACTTGGGTTCTAACCTGTTGCCTTC [AAACACACTAG_LTGcore_CT_RTGcore_GA] (site AAACACACTAG) (LTG core: CT, RTG core: GA)	0.477
GAGTCCATTTGGGTTCTAACCTGTTGCGTAA [GAGTCCACTAC_LTGcore_TT_RTGcore_TT] (site GAGTCCACTAC) (LTG core: TT, RTG core: TT)	0.0342
GGGCGTGGTTGGGTTCTAACCTGTTGCCTAG [GGGCGTGCTAG_LTGcore_GT_RTGcore_CT] (site GGGCGTGCTAG) (LTG core: GT, RTG core: CT)	0.0791
TCGCGACATTGGGTTCTAACCTGTTGCCGAG [TCGCGACCTCG_LTGcore_AT_RTGcore_CT] (site TCGCGACCTCG) (LTG core: AT, RTG core: CT)	0.0137
GGCTCCCTTTGGGTTCTAACCTGTTGCGGAG [GGCTCCCCTCC_LTGcore_TT_RTGcore_CT] (site GGCTCCCCTCC) (LTG core: TT, RTG core: CT)	0.0927
AAACACACTTGGGTTCTAACCTGTTGCCTTG [AAACACACTAG_LTGcore_CT_RTGcore_CA] (site AAACACACTAG) (LTG core: CT, RTG core: CA)	0.248
AAACACATGTGGGTTCTAACCTGTTGCCTAG [AAACACACTAG_LTGcore_TG_RTGcore_CT] (site AAACACACTAG) (LTG core: TG, RTG core: CT)	0.247

Sequence	recombinant barcode read abundance (log10)
TGATACCCTTGGGTTCTAACCTGTTGCGTGC [TGATACCCTAC_LTGcore_CT_RTGcore_GC] (site TGATACCCTAC) (LTG core: CT, RTG core: GC)	1.67
ATGTCCCGATGGGTTCTAACCTGTTGCTCTC [ATGTCCCCTGA_LTGcore_GA_RTGcore_GA] (site ATGTCCCCTGA) (LTG core: GA, RTG core: GA)	0.0444
AGGCCTCCTTGGGTTCTAACCTGTTGCCTCG [AGGCCTCCTAG_LTGcore_CT_RTGcore_CG] (site AGGCCTCCTAG) (LTG core: CT, RTG core: CG)	0.401
AAACATGCTTGGGTTCTAACCTGTTGCCTTC [AAACATGCTAG_LTGcore_CT_RTGcore_GA] (site AAACATGCTAG) (LTG core: CT, RTG core: GA)	0.572
TCTACCCACTGGGTTCTAACCTGTTGCTGGT [TCTACCCCTCA_LTGcore_AC_RTGcore_AC] (site TCTACCCCTCA) (LTG core: AC, RTG core: AC)	0.045
TAGAGGGCTTGGGTTCTAACCTGTTGCGGAT [TAGAGGGCTCC_LTGcore_CT_RTGcore_AT] (site TAGAGGGCTCC) (LTG core: CT, RTG core: AT)	0.779
GAGTCCTTATGGGTTCTAACCTGTTGCCTTA [GAGTCCTCTAG_LTGcore_TA_RTGcore_TA] (site GAGTCCTCTAG) (LTG core: TA, RTG core: TA)	0.136
AAACATGAGTGGGTTCTAACCTGTTGCCTAG [AAACATGCTAG_LTGcore_AG_RTGcore_CT] (site AAACATGCTAG) (LTG core: AG, RTG core: CT)	0.109
GAGTCCACTTGGGTTCTAACCTGTTGCGTCG [GAGTCCACTAC_LTGcore_CT_RTGcore_CG] (site GAGTCCACTAC) (LTG core: CT, RTG core: CG)	0.702
ATGCTTTCATGGGTTCTAACCTGTTGCCTAG [ATGCTTTCTAG_LTGcore_CA_RTGcore_CT] (site ATGCTTTCTAG) (LTG core: CA, RTG core: CT)	0.0483
AGTCTTAAATGGGTTCTAACCTGTTGCCAAG [AGTCTTACTTG_LTGcore_AA_RTGcore_CT] (site AGTCTTACTTG) (LTG core: AA, RTG core: CT)	0.182
GCGGGACCTTGGGTTCTAACCTGTTGCCTTA [GCGGGACCTAG_LTGcore_CT_RTGcore_TA] (site GCGGGACCTAG) (LTG core: CT, RTG core: TA)	1.18
TTATAAATATGGGTTCTAACCTGTTGCCTTA [TTATAAACTAG_LTGcore_TA_RTGcore_TA] (site TTATAAACTAG) (LTG core: TA, RTG core: TA)	0.855
CGGTCCCGGTGGGTTCTAACCTGTTGCCACC [CGGTCCCCTTG_LTGcore_GG_RTGcore_GG] (site CGGTCCCCTTG) (LTG core: GG, RTG core: GG)	0.213
AGGAGGTCTTGGGTTCTAACCTGTTGCCTGC [AGGAGGTCTAG_LTGcore_CT_RTGcore_GC] (site AGGAGGTCTAG) (LTG core: CT, RTG core: GC)	0.814
AAACAGTGTTGGGTTCTAACCTGTTGCCTAC [AAACAGTCTAG_LTGcore_GT_RTGcore_GT] (site AAACAGTCTAG) (LTG core: GT, RTG core: GT)	0.0266
GTCGCCCTTTGGGTTCTAACCTGTTGCTAAA [GTCGCCCCTTA_LTGcore_TT_RTGcore_TT] (site GTCGCCCCTTA) (LTG core: TT, RTG core: TT)	0.0974
